Measurements as given in patent publication US20260285850A1, “SUBSTITUTED OXAZOLIDINONES AND IMIDAZOLINONES AS HERBICIDES” (FMC CORPORATION, priority 2023, published 2026).

What was measured:
Assay type in all cases: in vivo
[1] = system: barnyardgrass (Echinochloa crus-galli); experiment: Test A preemergence soil spray, visual injury rating 0-100; details: 10 days, 0 = no effect, 100 = complete control
Summary of the method: (§1)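 Greenhouse test: loam/sand pots received a surfactant-containing formulation, as a preemergence directed soil spray or a postemergence spray on young plants. Injury was judged visually at day 10 relative to untreated controls.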

[2] = system: blackgrass (Alopecurus myosuroides); experiment: as above; details: 10 days, 0 = no effect, 100 = complete control
Summary of the method: as §1

corn (Zea mays) [3] = experiment: as above; details: 10 days, 0 = no effect, 100 = complete control
Summary of the method: as §1

[4] = system: green foxtail (Setaria viridis); experiment: as above; details: 10 days, 0 = no effect, 100 = complete control
Summary of the method: as §1

kochia (Bassia scoparia) [5] = experiment: as above; details: 10 days, 0 = no effect, 100 = complete control
Summary of the method: as §1

[6] = system: oat, wild (wild oat, Avena fatua); experiment: as above; details: 10 days, 0 = no effect, 100 = complete control
Summary of the method: as §1

[7] = system: palmer (palmer amaranth, palmer pigweed, Amaranthus palmeri); experiment: as above; details: 10 days, 0 = no effect, 100 = complete control
Summary of the method: as §1

[8] = system: ragweed (common ragweed, Ambrosia artemisiifolia); experiment: as above; details: 10 days, 0 = no effect, 100 = complete control
Summary of the method: as §1

[9] = system: ryegrass, Italian (italian ryegrass, Lolium multiflorum); experiment: as above; details: 10 days, 0 = no effect, 100 = complete control
Summary of the method: as §1

soybean (Glycine max) [10] = experiment: as above; details: 10 days, 0 = no effect, 100 = complete control
Summary of the method: as §1

[11] = system: wheat (Triticum aestivum); experiment: as above; details: 10 days, 0 = no effect, 100 = complete control
Summary of the method: as §1

[12] = system: barnyardgrass (Echinochloa crus-galli); experiment: Test A postemergence application, visual injury rating 0-100; details: 10 days
Summary of the method: as §1

[13] = system: blackgrass (Alopecurus myosuroides); experiment: as above; details: 10 days
Summary of the method: as §1

corn (Zea mays) [14] = experiment: as above; details: 10 days
Summary of the method: as §1

[15] = system: galium (catchweed bedstraw, Galium aparine); experiment: as above; details: 10 days
Summary of the method: as §1

[16] = system: green foxtail (Setaria viridis); experiment: as above; details: 10 days
Summary of the method: as §1

[17] = system: horseweed (Erigeron canadensis); experiment: as above; details: 10 days
Summary of the method: as §1

kochia (Bassia scoparia) [18] = experiment: as above; details: 10 days
Summary of the method: as §1

[19] = system: oat, wild (wild oat, Avena fatua); experiment: as above; details: 10 days
Summary of the method: as §1

[20] = system: palmer (palmer amaranth, palmer pigweed, Amaranthus palmeri); experiment: as above; details: 10 days
Summary of the method: as §1

[21] = system: ragweed (common ragweed, Ambrosia artemisiifolia); experiment: as above; details: 10 days
Summary of the method: as §1

[22] = system: ryegrass, Italian (italian ryegrass, Lolium multiflorum); experiment: as above; details: 10 days
Summary of the method: as §1

soybean (Glycine max) [23] = experiment: as above; details: 10 days
Summary of the method: as §1

[24] = system: wheat (Triticum aestivum); experiment: as above; details: 10 days
Summary of the method: as §1

[25] = system: barnyardgrass (Echinochloa crusgalli); experiment: Test B flooded paddy test, visual plant response rating 0-100; details: 250 g ai/ha, Flood, applied to paddy water, evaluated after 13 days
Summary of the method: (§2)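 Greenhouse, 13 d. Seedlings at 2-leaf stage, pots flooded to 3 cm, compound delivered into floodwater, water level held constant. Evaluated visually relative to controls.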

[26] = system: ducksalad (Heteranthera limosa); experiment: as above; details: 250 g ai/ha, Flood, applied to paddy water, evaluated after 13 days
Summary of the method: as §2

rice (Oryza sativa) = experiment: as above; details: 250 g ai/ha, Flood, applied to paddy water, evaluated after 13 days
Summary of the method: as §2

[27] = system: sedge, umbrella (small-flower umbrella sedge, Cyperus difformis); experiment: as above; details: 250 g ai/ha, Flood, applied to paddy water, evaluated after 13 days
Summary of the method: as §2

[28] = 31 g ai/ha, postemergence, 0 = no effect, 100 = complete control
[29] = Postemergence, 125 g ai/ha, 0 is no effect, 100 is complete control

CCOC(=O)C1CC(NC(=O)C2(C)CN(c3cc(F)cc(F)c3)C(=O)O2)CO1 (stereo not shown) [Compound 31]
Barnyardgrass plant response rating (0-100) ([1]; 31 g ai/ha): 0 | Barnyardgrass plant response rating (0 to 100 scale) ([1]; 125 g ai/ha): 0 | Blackgrass plant response rating (0-100) ([2]; 31 g ai/ha): 20 | Blackgrass plant response rating (0 to 100 scale) ([2]; 125 g ai/ha): 30 | Corn plant response rating (0-100) (corn (Zea mays) [3]; 31 g ai/ha): 0 | Corn plant response rating (0 to 100 scale) (corn (Zea mays) [3]; 125 g ai/ha): 0 | Foxtail, Green plant response rating (0-100) ([4]; 31 g ai/ha): 0 | Foxtail, Green plant response rating (0 to 100 scale) ([4]; 125 g ai/ha): 0 | Kochia plant response rating (0-100) (kochia (Bassia scoparia) [5]; 31 g ai/ha): 0 | Kochia plant response rating (0 to 100 scale) (kochia (Bassia scoparia) [5]; 125 g ai/ha): 0 | Oat, Wild plant response rating (0-100) ([6]; 31 g ai/ha): 0 | Oat, Wild plant response rating (0 to 100 scale) ([6]; 125 g ai/ha): 30 | Amaranth, Palmer plant response rating (0-100) ([7]; 31 g ai/ha): 0 | Amaranth, Palmer plant response rating (0 to 100 scale) ([7]; 125 g ai/ha): 10 | Ragweed plant response rating (0-100) ([8]; 31 g ai/ha): 0 | Ragweed plant response rating (0 to 100 scale) ([8]; 125 g ai/ha): 0 | Ryegrass, Italian plant response rating (0-100) ([9]; 31 g ai/ha): 0 | Ryegrass, Italian plant response rating (0 to 100 scale) ([9]; 125 g ai/ha): 60 | Soybean plant response rating (0-100) (soybean (Glycine max) [10]; 31 g ai/ha): 0 | Soybean plant response rating (0 to 100 scale) (soybean (Glycine max) [10]; 125 g ai/ha): 0 | Wheat plant response rating (0-100) ([11]; 31 g ai/ha): 0 | Wheat plant response rating (0 to 100 scale) ([11]; 125 g ai/ha): 90 | Barnyardgrass plant response rating (0-100) [12, 28]: 10 | Barnyardgrass plant response rating (0 to 100 scale) [12, 29]: 90 | Blackgrass plant response rating (0-100) [13, 28]: 90 | Blackgrass plant response rating (0 to 100 scale) [13, 29]: 100 | Corn plant response rating (0-100) (corn (Zea mays) [14]; [28]): 0 | Corn plant response rating (0 to 100 scale) (corn (Zea mays) [14]; [29]): 50 | Galium plant response rating (0-100) [15, 28]: 60 | Galium plant response rating (0 to 100 scale) [15, 29]: 70 | Foxtail, Green plant response rating (0-100) [16, 28]: 0 | Foxtail, Green plant response rating (0 to 100 scale) [16, 29]: 80 | Horseweed plant response rating (0-100) [17, 28]: 0 | Horseweed plant response rating (0 to 100 scale) [17, 29]: 0 | Kochia plant response rating (0-100) (kochia (Bassia scoparia) [18]; [28]): 0 | Kochia plant response rating (0 to 100 scale) (kochia (Bassia scoparia) [18]; [29]): 70 | Oat, Wild plant response rating (0-100) [19, 28]: 80 | Oat, Wild plant response rating (0 to 100 scale) [19, 29]: 90 | Amaranth, Palmer plant response rating (0-100) [20, 28]: 0 | Amaranth, Palmer / Pigweed, Palmer plant response rating (0 to 100 scale) [20, 29]: 20 | Ragweed plant response rating (0-100) [21, 28]: 30 | Ragweed plant response rating (0 to 100 scale) [21, 29]: 50 | Ryegrass, Italian plant response rating (0-100) [22, 28]: 60 | Ryegrass, Italian plant response rating (0 to 100 scale) [22, 29]: 90 | Soybean plant response rating (0-100) (soybean (Glycine max) [23]; [28]): 10 | Soybean plant response rating (0 to 100 scale) (soybean (Glycine max) [23]; [29]): 60 | Wheat plant response rating (0-100) [24, 28]: 90 | Wheat plant response rating (0 to 100 scale) [24, 29]: 90 | Plant response rating, Barnyardgrass (0 to 100 scale, 0 is no effect and 100 is complete control) [25]: 0 | Plant response rating, Ducksalad (0 to 100 scale, 0 is no effect and 100 is complete control) [26]: 0 | Plant response rating, Rice (0 to 100 scale, 0 is no effect and 100 is complete control) (rice (Oryza sativa)): 0 | Plant response rating, Sedge, Umbrella (0 to 100 scale, 0 is no effect and 100 is complete control) [27]: 0
